Measurements as given in patent US20150141336A1, “Pancreatic Peptide Compounds and Use” (Novo Nordisk A/S, priority 2012, published 2015).
Numbered stars: 1 amine (or outer) side, 2 acyl side, 3 side chain; on linkers, the order of the positions; unused ones are H or OH. Side chains are listed from the residue outwards. Peptide text beside a SMILES is read from it. * marks the point of attachment. C18 diacid = O=C(O)CCCCCCCCCCCCCCCCC(=O)*; γGlu = O=C(O)[C@H](CCC(=O)[*:2])N[*:1]; AEEA = NCCOCCOCC(=O)O

Test: Assay (II) PK i.v. minipig, in vivo half-life
Parameters: species or system Göttingen mini-pigs
Conditions: male, Göttingen, minipig, iv, Half-life minipig, Assay (II)
Protocol: An assay useful for measuring the pharmacokinetic (PK) profile of the PP peptide is the following mini-pig PK assay.
Five male Göttingen mini-pigs weighing approximately 18 to 22 kg from Ellegaard Göttingen Minipigs NS, Denmark are included in the study. The mini-pigs have two central venous catheters inserted which are used for intra venous (i.v.) dosing and blood sampling. The test compound is dissolved in 50 mM K2HPO4, 0.05% tween 80, pH=8.0 to a concentration of 180 nmol/ml. For comparison a control compound, such as human PP(1-36), may be administered. The pigs are dosed with 6 nmol test compound/kg body weight. Blood samples are taken at the following time points: pre-dose, 30 minutes, 1, 2, 4, 8, 24, 48, 72, 96, 120, 168 and 240 hours post dosing. The blood samples were collected into test tubes containing EDTA buffer for stabilization and kept on ice for max. 20 minutes before centrifugation. The centrifugation procedure to separate plasma may be: 4° C., approx. 2500 g for 10 minutes. Plasma is collected and immediately transferred to Micronic tubes stored at −20° C. until assayed.
The test compounds were assayed in plasma by Turbulent Flow Chromatography coupled to Liquid Chromatography with subsequent Tandem Mass Spectrometric Detection (TFC/LC/MS/MS). Positive mode ionization and Multiple Reaction Monitoring (MRM) of a multiple protonated species fragmented to a singly charged ion was employed for selectivity. The selectivity of the method allows multiple compounds to be quantified in one sample.
The concentrations of the test compound in samples of unknown concentration were calculated using the peak area as a function of amount. Calibration graphs based on plasma samples spiked with the analyte were constructed by regression analysis. Typical dynamic range for standard assay was 1-2000 nmol/I. The method performance was assured by co-assaying quality control (QC) samples in duplicate at three concentration levels.
Stock and working solutions of analytes were prepared in plasma and incubated by 37° C. for 1 hour.
Sample Preparation: 40.0 μl EDTA-plasma was added 160 μl 50% methanol, 1% formic acid, then vortexed and centrifuged at 16457 g at 4° C. for 20 minutes. The supernatant was transferred to a 96 well plate, plates incubated with 0.4% BSA, 37° C. for ½ hour. Injection volume was 25 μl.
The analysis was carried out on a Sciex API 3000 mass spectrometer (MDS/Sciex, Concord, ON, Canada) using a TurbolonSpray interface. The TFC/LC system consisted of two Flux Rheos 2000 quaternary pumps, a Cohesive VIM module (Cohesive Technologies, Franklin, Mass., USA) and a CTC LC/PAL auto sampler (CTC Analytics, Zingen, Switzerland). The centrifuge employed was a HettichMikro 22R (A. Hettich, Tuttlingen, Germany). For sample clean up a TurboFlow C8 column (0.5×50 mm) (Cohesive Technologies/Thermofisher) was used and the LC separation was done on a Proteo 4 μm column (2.0×50 mm) (Phenomenex, Torrance, Calif., USA). Eluents were isocratic and gradient combinations of methanol, acetonitril, Milli-Q water and formic acid.
Non-compartmental analysis (NCA): Plasma concentration-time profiles are analyzed by non-compartmental pharmacokinetics analysis (NCA) using WinNonlin Professional 5.0 (Pharsight Inc., Mountain View, Calif., USA). NCA is performed using the individual plasma concentration-time profiles from each animal.

Row | half-life [h] | Structure (SMILES)
1 | 69 | CSCC[C@H](NC(=O)[C@H](CCC(N)=O)NC(=O)[C@H](CCC(=O)O)NC(=O)[C@@H]1CCCN1C(=O)[C@@H](NC(=O)[C@H](C)NC(=O)[C@H](CC(N)=O)NC(=O)[C@H](CC(=O)O)NC(=O)CNC(=O)[C@@H]1CCCN1C(=O)[C@H](Cc1ccc(O)cc1)NC(=O)[C@@H](NC(=O)[C@@H]1CCCN1C(=O)[C@H](CCC(=O)O)NC(=O)[C@@H](N)CC(C)C)C(C)C)[C@@H](C)O)C(=O)N[C@@H](C)C(=O)N[C@@H](CCC(N)=O)C(=O)N[C@@H](Cc1ccc(O)cc1)C(=O)N[C@@H](C)C(=O)N[C@@H](C)C(=O)N[C@@H](CC(=O)O)C(=O)N[C@@H](CC(C)C)C(=O)N[C@@H](CCCNC(=N)N)C(=O)N[C@@H](CCCNC(=N)N)C(=O)N[C@@H](Cc1ccc(O)cc1)C(=O)N[C@@H](CCCCNC(=O)COCCOCCNC(=O)COCCOCCNC(=O)CC[C@H](NC(=O)CCCCCCCCCCCCCCCCC(=O)O)C(=O)O)C(=O)N[C@@H](CC(N)=O)C(=O)N[C@@H](CCSC)C(=O)N[C@@H](CC(C)C)C(=O)N[C@H](C(=O)N[C@@H](CCCNC(=N)N)C(=O)N1CCC[C@H]1C(=O)N[C@@H](CCCNC(=N)N)C(=O)N[C@@H](Cc1ccc(O)cc1)C(N)=O)[C@@H](C)O [Compound AN] (H-LEPVYPGDNATPEQMAQYAADLRRYK([AEEA-AEEA-γGlu-C18 diacid])NMLTRPRY-NH2; N-terminus and C-terminus assumed)
2 | 44 | CC[C@H](C)[C@H](NC(=O)[C@H](CCCCNC(=O)COCCOCCNC(=O)COCCOCCNC(=O)CC[C@H](NC(=O)CCCCCCCCCCCCCCCCC(=O)O)C(=O)O)NC(=O)[C@H](CCCNC(=N)N)NC(=O)[C@H](CCCNC(=N)N)NC(=O)[C@H](CC(C)C)NC(=O)[C@H](CC(=O)O)NC(=O)[C@H](C)NC(=O)[C@H](C)NC(=O)[C@H](Cc1ccc(O)cc1)NC(=O)[C@H](CCC(N)=O)NC(=O)[C@H](C)NC(=O)[C@H](CCSC)NC(=O)[C@H](CCC(N)=O)NC(=O)[C@H](CCC(=O)O)NC(=O)[C@@H]1CCCN1C(=O)[C@@H](NC(=O)[C@H](C)NC(=O)[C@H](CC(N)=O)NC(=O)[C@H](CC(=O)O)NC(=O)CNC(=O)[C@@H]1CCCN1C(=O)[C@H](Cc1ccc(O)cc1)NC(=O)[C@@H](NC(=O)[C@@H]1CCCN1C(=O)[C@H](CCC(=O)O)NC(=O)[C@@H](N)CC(C)C)C(C)C)[C@@H](C)O)C(=O)N[C@@H](CC(N)=O)C(=O)N[C@@H](CCSC)C(=O)N[C@@H](CC(C)C)C(=O)N[C@H](C(=O)N[C@@H](CCCNC(=N)N)C(=O)N1CCC[C@H]1C(=O)N[C@@H](CCCNC(=N)N)C(=O)N[C@@H](Cc1ccc(O)cc1)C(N)=O)[C@@H](C)O [Compound AO] (H-LEPVYPGDNATPEQMAQYAADLRRK([AEEA-AEEA-γGlu-C18 diacid])INMLTRPRY-NH2; N-terminus and C-terminus assumed)
3 | 48 | CC[C@H](C)[C@H](NC(=O)[C@H](Cc1ccc(O)cc1)NC(=O)[C@H](CCCNC(=N)N)NC(=O)[C@H](CCCCNC(=O)COCCOCCNC(=O)COCCOCCNC(=O)CC[C@H](NC(=O)CCCCCCCCCCCCCCCCC(=O)O)C(=O)O)NC(=O)[C@H](CC(C)C)NC(=O)[C@H](CC(=O)O)NC(=O)[C@H](C)NC(=O)[C@H](C)NC(=O)[C@H](Cc1ccc(O)cc1)NC(=O)[C@H](CCC(N)=O)NC(=O)[C@H](C)NC(=O)[C@H](CCSC)NC(=O)[C@H](CCC(N)=O)NC(=O)[C@H](CCC(=O)O)NC(=O)[C@@H]1CCCN1C(=O)[C@@H](NC(=O)[C@H](C)NC(=O)[C@H](CC(N)=O)NC(=O)[C@H](CC(=O)O)NC(=O)CNC(=O)[C@@H]1CCCN1C(=O)[C@H](Cc1ccc(O)cc1)NC(=O)[C@@H](NC(=O)[C@@H]1CCCN1C(=O)[C@H](CCC(=O)O)NC(=O)[C@@H](N)CC(C)C)C(C)C)[C@@H](C)O)C(=O)N[C@@H](CC(N)=O)C(=O)N[C@@H](CCSC)C(=O)N[C@@H](CC(C)C)C(=O)N[C@H](C(=O)N[C@@H](CCCNC(=N)N)C(=O)N1CCC[C@H]1C(=O)N[C@@H](CCCNC(=N)N)C(=O)N[C@@H](Cc1ccc(O)cc1)C(N)=O)[C@@H](C)O [Compound AQ] (H-LEPVYPGDNATPEQMAQYAADLK([AEEA-AEEA-γGlu-C18 diacid])RYINMLTRPRY-NH2; N-terminus and C-terminus assumed)
4 | 31 | CC[C@H](C)[C@H](NC(=O)[C@H](Cc1ccc(O)cc1)NC(=O)[C@H](CCCNC(=N)N)NC(=O)[C@H](CCCNC(=N)N)NC(=O)[C@H](CCCCNC(=O)COCCOCCNC(=O)COCCOCCNC(=O)CC[C@H](NC(=O)CCCCCCCCCCCCCCCCC(=O)O)C(=O)O)NC(=O)[C@H](CC(=O)O)NC(=O)[C@H](C)NC(=O)[C@H](C)NC(=O)[C@H](Cc1ccc(O)cc1)NC(=O)[C@H](CCC(N)=O)NC(=O)[C@H](C)NC(=O)[C@H](CCSC)NC(=O)[C@H](CCC(N)=O)NC(=O)[C@H](CCC(=O)O)NC(=O)[C@@H]1CCCN1C(=O)[C@@H](NC(=O)[C@H](C)NC(=O)[C@H](CC(N)=O)NC(=O)[C@H](CC(=O)O)NC(=O)CNC(=O)[C@@H]1CCCN1C(=O)[C@H](Cc1ccc(O)cc1)NC(=O)[C@@H](NC(=O)[C@@H]1CCCN1C(=O)[C@H](CCC(=O)O)NC(=O)[C@@H](N)CC(C)C)C(C)C)[C@@H](C)O)C(=O)N[C@@H](CC(N)=O)C(=O)N[C@@H](CCSC)C(=O)N[C@@H](CC(C)C)C(=O)N[C@H](C(=O)N[C@@H](CCCNC(=N)N)C(=O)N1CCC[C@H]1C(=O)N[C@@H](CCCNC(=N)N)C(=O)N[C@@H](Cc1ccc(O)cc1)C(N)=O)[C@@H](C)O [Compound AR] (H-LEPVYPGDNATPEQMAQYAADK([AEEA-AEEA-γGlu-C18 diacid])RRYINMLTRPRY-NH2; N-terminus and C-terminus assumed)
5 | 10 | CC[C@H](C)[C@H](NC(=O)[C@H](Cc1ccc(O)cc1)NC(=O)[C@H](CCCNC(=N)N)NC(=O)[C@H](CCCNC(=N)N)NC(=O)[C@H](CC(C)C)NC(=O)[C@H](CCCCNC(=O)COCCOCCNC(=O)COCCOCCNC(=O)CC[C@H](NC(=O)CCCCCCCCCCCCCCCCC(=O)O)C(=O)O)NC(=O)[C@H](C)NC(=O)[C@H](C)NC(=O)[C@H](Cc1ccc(O)cc1)NC(=O)[C@H](CCC(N)=O)NC(=O)[C@H](C)NC(=O)[C@H](CCSC)NC(=O)[C@H](CCC(N)=O)NC(=O)[C@H](CCC(=O)O)NC(=O)[C@@H]1CCCN1C(=O)[C@@H](NC(=O)[C@H](C)NC(=O)[C@H](CC(N)=O)NC(=O)[C@H](CC(=O)O)NC(=O)CNC(=O)[C@@H]1CCCN1C(=O)[C@H](Cc1ccc(O)cc1)NC(=O)[C@@H](NC(=O)[C@@H]1CCCN1C(=O)[C@H](CCC(=O)O)NC(=O)[C@@H](N)CC(C)C)C(C)C)[C@@H](C)O)C(=O)N[C@@H](CC(N)=O)C(=O)N[C@@H](CCSC)C(=O)N[C@@H](CC(C)C)C(=O)N[C@H](C(=O)N[C@@H](CCCNC(=N)N)C(=O)N1CCC[C@H]1C(=O)N[C@@H](CCCNC(=N)N)C(=O)N[C@@H](Cc1ccc(O)cc1)C(N)=O)[C@@H](C)O [Compound AS] (H-LEPVYPGDNATPEQMAQYAAK([AEEA-AEEA-γGlu-C18 diacid])LRRYINMLTRPRY-NH2; N-terminus and C-terminus assumed)
